Patent publication US20240208934A1, “ULK1/2 INHIBITORS AND THEIR USE THEREOF” (LifeArc, priority 2021, published 2024)

These compounds were tested on ULK (assay: ULK radiometric assay (33P incorporation onto MBP substrate, glass fiber capture filter)). Conditions: ULK Biochemical activity; 20 uM ATP, 0.2 mg/mL MBP; averages of at least two independent experiments.
Procedure: ULK activity was measured using a radiometric assay, to measure the incorporation of radiolabelled ^33P onto MBP substrate using a glass fiber capture filter method. Reaction conditions were 0.2 mg/mL MBP, 20 uM ATP (0.25 μCi/well), 50 mM Tris HCl, pH7.5, 10 mM MgCl2, 0.1% beta-mercaptoethanol, 0.1 mM EGTA, 0.01% BSA. Ten point Half log Compound dilution series were prepared in 100% DMSO and added to the reaction to give final assay concentration of 10% DMSO. Compounds were tested in duplicate and values normalized to 10% DMSO only controls. The data were fitted to a four parameter fit equation and the IC50 values shown are averages of at least two independent experiments.

| SMILES | IC50 [nM] |
| --- | --- |
| O=C1CCCCN1CCCNc1nc(Nc2cc3c(cc2Cl)CCNC3)ncc1C(F)(F)F [Example 43, 1-[3-[[2-[(6-Chloro-1,2,3,4-tetrahydroisoquinolin-7-yl)amino]-5-(trifluoromethyl)pyrimidin-4-yl]amino]propyl]piperidin-2-one] | < 200 |
| O=C1CCCCN1CCCNc1nc(Nc2cc3c(cc2C(F)(F)F)CCNC3)ncc1C(F)(F)F [Example 45, 1-[3-[[5-(Trifluoromethyl)-2-[[6-(trifluoromethyl)-1,2,3,4-tetrahydroisoquinolin-7-yl]amino]pyrimidin-4-yl]amino]propyl]piperidin-2-one] | < 200 |
| CCOc1nn(C)cc1Nc1ncc(C(F)(F)F)c(NCCCN2CCCCC2=O)n1 [Example 46, 1-[3-[[2-[(3-Ethoxy-1-methyl-pyrazol-4-yl)amino]-5-(trifluoromethyl)pyrimidin-4-yl]amino]propyl]piperidin-2-one] | 200 to 1000 |
| Cn1cc(Nc2ncc(C(F)(F)F)c(NCCCN3CCCCC3=O)n2)c(OCC(F)(F)F)n1 [Example 48, 1-[3-[[2-[[1-Methyl-3-(2,2,2-trifluoroethoxy)pyrazol-4-yl]amino]-5-(trifluoromethyl)pyrimidin-4-yl]amino]propyl]piperidin-2-one] | 200 to 1000 |
| CC(C)Oc1nn(C)cc1Nc1ncc(C(F)(F)F)c(NCCCN2CCCCC2=O)n1 [Example 49, 1-[3-[[2-[(3-Isopropoxy-1-methyl-pyrazol-4-yl)amino]-5-(trifluoromethyl)pyrimidin-4-yl]amino]propyl]piperidin-2-one] | ≥ 1000 |
| CN(C)S(=O)(=O)c1cc2c(c(Nc3ncc(C(F)(F)F)c(NCCCN4CCCCC4=O)n3)c1)OCC2 [Example 50, N,N-dimethyl-7-[[4-[3-(2-oxo-1-piperidyl)propylamino]-5-(trifluoromethyl)pyrimidin-2-yl]amino]-2,3-dihydrobenzofuran-5-sulfonamide] | ≥ 1000 |
| O=C1CCCCN1CCCNc1nc(Nc2cc(S(=O)(=O)N3CCOCC3)cc3c2OCC3)ncc1C(F)(F)F [Example 51, 1-[3-[[2-[(5-Morpholinosulfonyl-2,3-dihydrobenzofuran-7-yl)amino]-5-(trifluoromethyl)pyrimidin-4-yl]amino]propyl]piperidin-2-one] | ≥ 1000 |
| O=C1CCCCN1CCCNc1nc(Nc2cc(S(=O)(=O)N3CCNCC3)cc3c2OCC3)ncc1C(F)(F)F [Example 52, 1-[3-[[2-[(5-Piperazin-1-ylsulfonyl-2,3-dihydrobenzofuran-7-yl)amino]-5-(trifluoromethyl)pyrimidin-4-yl]amino]propyl]piperidin-2-one] | 200 to 1000 |
| COc1nn(CCN2CCOCC2)cc1Nc1ncc(C(F)(F)F)c(NCCCN2CCCCC2=O)n1 [Example 53, 1-[3-[[2-[[3-Methoxy-1-(2-morpholinoethyl)pyrazol-4-yl]amino]-5-(trifluoromethyl)pyrimidin-4-yl]amino]propyl]piperidin-2-one] | ≥ 1000 |
| CN(C)CCOc1ccc(Cl)c(Nc2ncc(C(F)(F)F)c(NCCCN3CCCCC3=O)n2)c1 [Example 58, 1-[3-[[2-[2-Chloro-5-[2-(dimethylamino)ethoxy]anilino]-5-(trifluoromethyl)pyrimidin-4-yl]amino]propyl]piperidin-2-one] | 200 to 1000 |
| O=C(NCCCNc1nc(Nc2ccc3c(c2)CCNC3)ncc1C(F)(F)F)C1CCC1 [Example 62, N-(3-((2-((1,2,3,4-tetrahydroisoquinolin-6-yl)amino)-5-(trifluoromethyl)pyrimidin-4-yl)amino)propyl)cyclobutanecarboxamide] | < 200 |
| FC(F)(F)c1cnc(Nc2ccc3c(c2)CCNC3)nc1NCC1CNCCO1 (centres unmarked) [Example 63, N4-(morpholin-2-ylmethyl)-N2-(1,2,3,4-tetrahydroisoquinolin-6-yl)-5-(trifluoromethyl)pyrimidine-2,4-diamine] | < 200 |
| CN(C)CCCN(C)c1nc(Nc2ccc3c(c2)CCNC3)ncc1C(F)(F)F [Example 64, N4-[3-(dimethylamino)propyl]-N4-methyl-N2-(1,2,3,4-tetrahydroisoquinolin-6-yl)-5-(trifluoromethyl)pyrimidine-2,4-diamine] | 200 to 1000 |
| FC(F)(F)c1cnc(Nc2ccc3c(c2)CCNC3)nc1NCCc1cnc[nH]1 [Example 65, N4-[2-(1H-imidazol-5-yl)ethyl]-N2-(1,2,3,4-tetrahydroisoquinolin-6-yl)-5-(trifluoromethyl)pyrimidine-2,4-diamine] | < 200 |
| O=C1CCCN1CCCNc1nc(Nc2ccc3c(c2)CCNC3)ncc1C(F)(F)F [Example 66, 1-[3-[[2-(1,2,3,4-tetrahydroisoquinolin-6-ylamino)-5-(trifluoromethyl)pyrimidin-4-yl]amino]propyl]pyrrolidin-2-one] | < 200 |

Next, values leading:

| IC50 [nM] | SMILES |
| --- | --- |
| ≥ 1000 | COc1cc(COC(C)C)ccc1Nc1ncc(C(F)(F)F)c(NCCCN2CCCCC2=O)n1 [Example 35, 1-[3-[[2-[4-(Isopropoxymethyl)-2-methoxy-anilino]-5-(trifluoromethyl)pyrimidin-4-yl]amino]propyl]piperidin-2-one] |
| ≥ 1000 | COc1cc(C(=O)O)ccc1Nc1ncc(C(F)(F)F)c(NCCCN2CCCCC2=O)n1 [Example 36, 3-Methoxy-4-[[4-[3-(2-oxo-1-piperidyl)propylamino]-5-(trifluoromethyl)pyrimidin-2-yl]amino]benzoic acid] |
| ≥ 1000 | COc1cc2c(cc1Nc1ncc(C(F)(F)F)c(NCCCN3CCCCC3=O)n1)C(=O)N(C)C2 [Example 37, 5-Methoxy-2-methyl-6-[[4-[3-(2-oxo-1-piperidyl)propylamino]-5-(trifluoromethyl)pyrimidin-2-yl]amino]isoindolin-1-one] |
| ≥ 1000 | COc1cc(C(=O)N2CCOCC2)ccc1Nc1ncc(C(F)(F)F)c(NCCCN2CCCCC2=O)n1 [Example 38, 1-[3-[[2-[2-Methoxy-4-(morpholine-4-carbonyl)anilino]-5-(trifluoromethyl)pyrimidin-4-yl]amino]propyl]piperidin-2-one] |
| ≥ 1000 | CNC(=O)c1ccc(Nc2ncc(C(F)(F)F)c(NCCCN3CCCCC3=O)n2)c(OC)c1 [Example 39, 3-Methoxy-N-methyl-4-[[4-[3-(2-oxo-1-piperidyl)propylamino]-5-(trifluoromethyl)pyrimidin-2-yl]amino]benzamide] |
| ≥ 1000 | COc1cc(C(=O)N(C)C)ccc1Nc1ncc(C(F)(F)F)c(NCCCN2CCCCC2=O)n1 [Example 40, 3-Methoxy-N,N-dimethyl-4-[[4-[3-(2-oxo-1-piperidyl)propylamino]-5-(trifluoromethyl)pyrimidin-2-yl]amino]benzamide] |
| 200 to 1000 | COc1cc(C(=O)N2CCN(C)CC2)ccc1Nc1ncc(C(F)(F)F)c(NCCCN2CCCCC2=O)n1 [Example 41, 1-[3-[[2-[2-Methoxy-4-(4-methylpiperazine-1-carbonyl)anilino]-5-(trifluoromethyl)pyrimidin-4-yl]amino]propyl]piperidin-2-one] |
| 200 to 1000 | COc1cc(C(=O)NC2CCNCC2)ccc1Nc1ncc(C(F)(F)F)c(NCCCN2CCCCC2=O)n1 [Example 42, 3-Methoxy-4-[[4-[3-(2-oxo-1-piperidyl)propylamino]-5-(trifluoromethyl)pyrimidin-2-yl]amino]-N-(4-piperidyl)benzamide] |
| 200 to 1000 | O=C1CCCCN1CCCNc1nc(Nc2cc(OC3CCNCC3)ccc2Cl)ncc1C(F)(F)F [Example 44, 1-[3-[[2-[2-Chloro-5-(4-piperidyloxy)anilino]-5-(trifluoromethyl)pyrimidin-4-yl]amino]propyl]piperidin-2-one] |
| ≥ 1000 | COc1ccc(CO)cc1Nc1ncc(C(F)(F)F)c(NCCCN2CCCCC2=O)n1 [Example 47, 1-[3-[[2-[5-(Hydroxymethyl)-2-methoxy-anilino]-5-(trifluoromethyl)pyrimidin-4-yl]amino]propyl]piperidin-2-one] |
| < 200 | O=C1CCCCN1CCCNc1nc(Nc2ccc(N3CCOCC3)cc2Cl)ncc1C(F)(F)F [Example 54, 1-[3-[[2-(2-Chloro-4-morpholino-anilino)-5-(trifluoromethyl)pyrimidin-4-yl]amino]propyl]piperidin-2-one] |
| 200 to 1000 | O=C1CCCCN1CCCNc1nc(Nc2cc(CN3CCOCC3)ccc2Cl)ncc1C(F)(F)F [Example 55, 1-[3-[[2-[2-Chloro-5-(morpholinomethyl)anilino]-5-(trifluoromethyl)pyrimidin-4-yl]amino]propyl]piperidin-2-one] |
| 200 to 1000 | CC(=O)N1CCc2cc(Cl)c(Nc3ncc(C(F)(F)F)c(NCCCN4CCCCC4=O)n3)cc2C1 [Example 56, 1-[3-[[2-[(2-Acetyl-6-chloro-3,4-dihydro-1H-isoquinolin-7-yl)amino]-5-(trifluoromethyl)pyrimidin-4-yl]amino]propyl]piperidin-2-one] |
| 200 to 1000 | O=C1CCCCN1CCCNc1nc(Nc2cc(O)ccc2Cl)ncc1C(F)(F)F [Example 57, 1-[3-[[2-(2-Chloro-5-hydroxy-anilino)-5-(trifluoromethyl)pyrimidin-4-yl]amino]propyl]piperidin-2-one] |
| 200 to 1000 | O=C1CCCCN1CCCNc1nc(Nc2cc(OCCN3CCOCC3)ccc2Cl)ncc1C(F)(F)F [Example 59, 1-[3-[[2-[2-Chloro-5-(2-morpholinoethoxy)anilino]-5-(trifluoromethyl)pyrimidin-4-yl]amino]propyl]piperidin-2-one] |
| < 200 | CNCc1ccc(OC)c(Nc2ncc(C(F)(F)F)c(NCCCN3CCCCC3=O)n2)c1 [Example 60, 1-[3-[[2-[2-Methoxy-5-(methylaminomethyl)anilino]-5-(trifluoromethyl)pyrimidin-4-yl]amino]propyl]piperidin-2-one] |
| ≥ 1000 | COc1ccc(CN2CCOCC2)cc1Nc1ncc(C(F)(F)F)c(NCCCN2CCCCC2=O)n1 [Example 61, 1-[3-[[2-[2-Methoxy-5-(morpholinomethyl)anilino]-5-(trifluoromethyl)pyrimidin-4-yl]amino]propyl]piperidin-2-one] |
